According to patent US11384120B2, “Peptide capable of binding to biomarker for inflammatory and metabolic diseases, and use thereof” (NIBEC CO., LTD., priority 2019, dated 2022):
Read-outs that look alike come from different tables or passages of the source.

Key:
RAW 264.7 cells [1] = test system: RAW 264.7 cells
Description: (§1) RAW 264.7 cells were seeded at a density of 2×10^4/well on a 6-well plate. After 24 hours, replacement was conducted with DMEM medium containing 0.5% FBS. The cells were treated with 50 μM of each of fluorescence (rhodamine)-labeled peptides of SEQ ID NOS: 1, 5 and 6. After 20 minutes, the cells were fixed and observed with a confocal microscope.

IL-6 = IL-6 expression by ELISA in palmitic acid-treated HepG2 cells; assay type: cell-based; details: HepG2, peptide 200 μM 2 hours, then palmitic acid 200 μM 24 hours, medium, FIG. 4
Description: HepG2 cells were plated at a density of 70% on a 6-well plate. After 16 hours, the cells were starved using DMEM medium containing 0.5% FBS for 2 hours. The cells were treated with a medium containing each of the peptides of SEQ ID NOS: 1 to 6 at a concentration of 200 μM for 2 hours, and were further treated with palmitic acid at a concentration of 200 μM to induce an inflammatory response for 24 hours. Each medium was collected, and the level of expression of IL-6, an inflammatory cytokine, was detected with an ELISA kit (R&D, Minneapolis, Minn., USA).

RAW 264.7 cells [2] = assay: cell permeability of rhodamine-labeled peptides by confocal microscopy; details: RAW 264.7, rhodamine-labeled peptide 50 μM, 20 minutes, FIG. 3
Description: as §1

Sequence	cell permeability (fluorescence in the cells) (RAW 264.7 cells [1])	expression level of IL-6 (IL-6)	cell permeability (fluorescence in the cells) (RAW 264.7 cells [2])
AESPLTNRGWNPGKCSTRGRKCCRRKK [SEQ ID NO: 6]	excellent cell permeability	lowest IL-6 expression level	
GKCSTRGRKCCRRKK [SEQ ID NO: 5]			excellent cell permeability
